According to patent US10280198B2, “Therapeutic agents for reducing parathyroid hormone levels” (KAI PHARMACEUTICALS, INC., priority 2009, dated 2019):
Read-outs that look alike come from different tables or passages of the source. Square brackets hold non-standard residues; d marks the D form. Peptide text beside a SMILES is read from it. βAla = NCCC(=O)O

What was measured:
[1] = molecular target: T1, human calcium-sensing receptor (CaSR) (Homo sapiens, UniProt P41180); test: In vitro cell assay in HEK-293 expressing the human calcium-sensing receptor (IP1 production); type: cell-based
T1 construct: expressed in transfected cells; host or cells: HEK 293T cells, transiently transfected (lipofectamine 2000); in some cases HEK293 cells stably transfected
T1 sequence (P41180 20-1078): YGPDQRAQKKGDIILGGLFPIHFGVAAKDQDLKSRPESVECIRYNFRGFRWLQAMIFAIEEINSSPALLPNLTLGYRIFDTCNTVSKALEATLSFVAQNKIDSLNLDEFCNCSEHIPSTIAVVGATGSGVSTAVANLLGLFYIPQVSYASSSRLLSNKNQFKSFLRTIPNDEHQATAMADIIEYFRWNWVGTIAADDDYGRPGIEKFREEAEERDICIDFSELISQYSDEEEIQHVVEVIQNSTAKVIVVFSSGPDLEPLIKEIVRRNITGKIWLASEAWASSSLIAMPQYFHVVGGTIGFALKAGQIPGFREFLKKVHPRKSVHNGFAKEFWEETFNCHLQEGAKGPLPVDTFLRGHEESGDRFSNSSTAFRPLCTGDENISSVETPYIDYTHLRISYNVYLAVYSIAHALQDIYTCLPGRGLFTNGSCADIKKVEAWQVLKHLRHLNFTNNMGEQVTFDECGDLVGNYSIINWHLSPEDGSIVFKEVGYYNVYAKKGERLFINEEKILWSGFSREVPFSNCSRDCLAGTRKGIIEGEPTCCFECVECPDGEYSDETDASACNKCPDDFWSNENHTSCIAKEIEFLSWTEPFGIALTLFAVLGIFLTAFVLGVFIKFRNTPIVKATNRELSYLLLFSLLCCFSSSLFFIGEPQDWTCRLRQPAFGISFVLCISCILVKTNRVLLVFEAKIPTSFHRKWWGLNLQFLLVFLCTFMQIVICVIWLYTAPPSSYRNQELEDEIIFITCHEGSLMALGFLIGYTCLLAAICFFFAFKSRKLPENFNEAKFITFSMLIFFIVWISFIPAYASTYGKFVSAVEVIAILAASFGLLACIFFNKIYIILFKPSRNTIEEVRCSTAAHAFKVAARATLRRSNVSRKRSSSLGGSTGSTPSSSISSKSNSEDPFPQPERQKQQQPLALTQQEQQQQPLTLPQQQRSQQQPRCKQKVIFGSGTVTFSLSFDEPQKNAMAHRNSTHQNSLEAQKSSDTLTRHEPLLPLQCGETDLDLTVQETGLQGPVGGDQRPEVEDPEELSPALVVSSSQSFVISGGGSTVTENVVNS
Description: The activity of a variety of peptides and conjugates was tested against the human CaSR. These studies were conducted by measuring IP1 production in HEK293 cells that express the human CaSR. Each peptide was tested in eight different concentrations, in duplicates, to establish a dose response curve. Curve fitting was performed using GraphPad Prism. In Table 5, and throughout the specification, residues provided in capital letters are L-amino acids, while lower case letters indicate D-amino acids. “Ac” indicates an acetyl capping group, “NH2” indicates an amide capping group, “Ac-bAla” is an acetylated beta-alanine, “GSH” indicates reduced glutathione, “GS” indicates oxidized glutathione, “PEG” refers to polyethylene glycol, “PEG2” and “PEGS” refer to polyethylene glycol moieties of 2 kDa and 5 kDa, respectively, and “Mpa” refers to mercaptopropionic acid.
The day after, these cells were transfected with human CaSR receptor using lipofectamine 2000 transfection reagent 24 hrs post transfection, cells were seeded in 384 well plates at 8,000 cells/well. […] In some cases, EC50 values were determined by measuring inositol monophosphate production in the HEK293 cells, stably transfected with the human calcium-sensing receptor (see Table 1).
Cells were incubated with compounds at various concentrations (1 mM or 300 μM as the highest and further ½ log serial dilutions) at 37° C. for 1.5 hrs before reaction termination. […] In brief, incubation with the compound was terminated by sequentially adding D2 labeled-IP1 and cryptate-labeled anti-IP1 in lysis buffer and further incubating at room temperature for 60 minutes. […] Non-transfected 293 cells were used as negative control.
IP1 concentrations were calculated from standard curves (generated with Graph Pad Prism ver. 4) using known concentrations of IP1 standards.

plasma PTH = test: In vivo PTH lowering after IV bolus in isoflurane-anesthetized normal Sprague Dawley rats; design: species or system rat; settings: for % PTH reduction of baseline at 1 hour post IV admin. of 0.5 mg/kg compound: isoflurane-anesthetized normal rats, 0.5 mg/kg IV
Outline: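 Peptides were given as a 0.5 mg/kg IV bolus to normal Sprague Dawley rats kept under isoflurane throughout, with saline bolus controls.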

[2] = tested on: rat peritoneal mast cells; test: In vitro histamine induction in rat peritoneal mast cells; type: cell-based
Outline: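 Mast cells from peritoneal lavage of Sprague Dawley rats were incubated with compound at 10 μM for 15 min at 37 °C in HBSS + 25 mM HEPES pH 7.4. Supernatant histamine measured by EIA; response expressed as fold change versus pre-incubation levels.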

[3] = Table 5, IP1 production in HEK293 cells expressing human CaSR, eight concentrations in duplicate, read-out: EC50 in CaSR in vitro assay
[4] = Table 6, normal rats, AUC 1-4 h
[5] = Table 3, normal rats, AUC 1-4 h
[6] = Table 1, IP1 in HEK293 cells expressing human CaSR, read-out: In vitro EC50
[7] = Table 1, normal rats, PTH at 1, 2, 3, 4 h, AUCcmpd treated/AUCsaline control*100

Row | Compound | EC50 [1, 3] | Histamine in vitro Fold change of non-treated at 10 uM [2] | also measured
1 | CC(=O)N[C@H](CS)C(=O)N[C@H](C)C(=O)N[C@H](CCCNC(=N)N)C(=O)N[C@H](CCCNC(=N)N)C(=O)N[C@H](CCCNC(=N)N)C(=O)N[C@H](CCC(=O)O)C(=O)N[C@H](CCCNC(=N)N)C(N)=O [SEQ ID NO: 68, Ac-carrrer-NH2] (Ac-[dC][dA][dR][dR][dR][dE][dR]-NH2) | 62 µM | 1.3 fold | 0.5 mg/kg IV bolus % PTH AUC of saline control (plasma PTH; [4]): 81%
2 | CC(=O)N[C@H](CSSCCC(=O)O)C(=O)N[C@H](C)C(=O)N[C@H](CCCNC(=N)N)C(=O)N[C@H](CCCNC(=N)N)C(=O)N[C@H](CCCNC(=N)N)C(=O)N[C@H](C)C(=O)N[C@H](CCCNC(=N)N)C(N)=O [SEQ ID NO: 56, Ac-c(Mpa)arrrar-NH2] | 21 µM | – | 0.5 mg/kg IV bolus % PTH AUC of saline control (plasma PTH; Table 8, normal rats, AUC 1-4 h): 25%
3 | CC(=O)N[C@@H](CS)C(=O)N[C@@H](Cc1ccc(O)cc1)C(=O)NCC(=O)N[C@@H](CCCNC(=N)N)C(=O)N[C@@H](CCCCN)C(=O)N[C@@H](CCCCN)C(=O)N[C@@H](CCCNC(=N)N)C(=O)N[C@@H](CCCNC(=N)N)C(=O)N[C@@H](CCC(N)=O)C(=O)N[C@@H](CCCNC(=N)N)C(=O)N[C@@H](CCCNC(=N)N)C(=O)N[C@@H](CCCNC(=N)N)C(N)=O [SEQ ID NO: 47] | 4.5 µM | – | –
4 | Ac-c(PEG2-C)rrrrrr-NH2 (XXXXXXX; D-residues) [SEQ ID NO: 59] | 0.02 µM | – | –
5 | CC(=O)N[C@H](C)C(=O)N[C@H](CCCNC(=N)N)C(=O)N[C@H](CCCNC(=N)N)C(=O)N[C@H](CCCNC(=N)N)C(=O)N[C@H](C)C(=O)N[C@H](CCCNC(=N)N)C(N)=O [SEQ ID NO: 29, Ac-arrrar-NH2] (Ac-[dA][dR][dR][dR][dA][dR]-NH2) | > 1000 µM | – | potency to activate the human CaSR in vitro ([1]; HEK-293 cell assay): dramatically reduced the ability of the compound to activate the CaSR; PTH-lowering activity in normal rats (plasma PTH; 9 mg/kg IV bolus, FIG. 2B): did not reduce PTH concentration
6 | CC(=O)N[C@H](CS)C(=O)N[C@H](C)C(=O)N[C@H](CCCNC(=N)N)C(=O)N[C@H](C)C(=O)N[C@H](CCCNC(=N)N)C(=O)N[C@H](C)C(=O)N[C@H](CCCNC(=N)N)C(=O)N[C@H](C)C(=O)N[C@H](CCCNC(=N)N)C(N)=O [SEQ ID NO: 78, Ac-carararar-NH2] (Ac-[dC][dA][dR][dA][dR][dA][dR][dA][dR]-NH2) | 5.3 µM | – | –
7 | CC(=O)N[C@H](CS)C(=O)N[C@H](C)C(=O)N[C@H](CCCCN)C(=O)N[C@H](CCCNC(=N)N)C(=O)N[C@H](CCCNC(=N)N)C(=O)N[C@H](C)C(=O)N[C@H](CCCNC(=N)N)C(N)=O [SEQ ID NO: 72, Ac-cakrrar-NH2] (Ac-[dC][dA][dK][dR][dR][dA][dR]-NH2) | 35 µM | 1.1 fold | –

Continued, in another order:

Row | EC50 [1, 3] | Histamine in vitro Fold change of non-treated at 10 uM [2] | Compound | also measured
8 | 31 µM | – | CC(=O)N[C@H](CS)C(=O)N[C@H](CCC(=O)O)C(=O)N[C@H](CCCNC(=N)N)C(=O)N[C@H](CCCNC(=N)N)C(=O)N[C@H](CCCNC(=N)N)C(=O)N[C@H](C)C(=O)N[C@H](CCCNC(=N)N)C(N)=O [SEQ ID NO: 69, Ac-cerrrar-NH2] (Ac-[dC][dE][dR][dR][dR][dA][dR]-NH2) | 0.5 mg/kg IV bolus % PTH AUC of saline control (plasma PTH; [4]): 103%
9 | 1 µM | – | CC(=O)NCCC(=O)N[C@H](CS)C(=O)N[C@H](CCCNC(=N)N)C(=O)N[C@H](CCCNC(=N)N)C(=O)N[C@H](CCCNC(=N)N)C(=O)N[C@H](CCCNC(=N)N)C(=O)N[C@H](CCCNC(=N)N)C(=O)N[C@H](CCCNC(=N)N)C(N)=O [SEQ ID NO: 30, Ac-bAla-crrrrrr-NH2] (Ac-[βAla][dC][dR][dR][dR][dR][dR][dR]-NH2) | 0.5 mg/kg IV bolus % PTH AUC of saline control (plasma PTH; [5]): 0%
10 | 1.1 µM | 5.3 fold | CC(=O)N[C@H](CS)C(=O)N[C@H](CCCNC(=N)N)C(=O)N[C@H](CCCNC(=N)N)C(=O)N[C@H](C)C(=O)N[C@H](CCCNC(=N)N)C(=O)N[C@H](CCCNC(=N)N)C(=O)N[C@H](CCCNC(=N)N)C(N)=O [SEQ ID NO: 10, Ac-crrarrr-NH2] (Ac-[dC][dR][dR][dA][dR][dR][dR]-NH2) | EC50 [1, 6]: 1.1 µM; duration of decreased PTH (plasma PTH; 0.5 mg/kg IV bolus, normal rats, FIG. 5): at least four hours; PTH-lowering activity in normal rats (plasma PTH; 0.5 mg/kg single IV administration): below the detection limit or essentially zero; % PTH reduction of baseline at 1 hour post IV admin. of 0.5 mg/kg compound (plasma PTH; Table 1): 0%; 0.5 mg/kg IV bolus % PTH AUC of saline control (plasma PTH; [7]): 0%
11 | 1.1 µM | – | N=C(N)NCCC[C@@H](NC(=O)[C@@H](CCCNC(=N)N)NC(=O)[C@@H](CCCNC(=N)N)NC(=O)[C@@H](CCCNC(=N)N)NC(=O)[C@@H](CCCNC(=N)N)NC(=O)[C@@H](CCCNC(=N)N)NC(=O)[C@H](N)CS)C(N)=O [SEQ ID NO: 80, crrrrrr-NH2] | –
12 | 1 µM | 6.8 fold | CC(=O)N[C@H](CS)C(=O)N[C@H](CCCNC(=N)N)C(=O)N[C@H](C)C(=O)N[C@H](CCCNC(=N)N)C(=O)N[C@H](CCCNC(=N)N)C(=O)N[C@H](CCCNC(=N)N)C(=O)N[C@H](CCCNC(=N)N)C(N)=O [SEQ ID NO: 9, Ac-crarrrr-NH2] (Ac-[dC][dR][dA][dR][dR][dR][dR]-NH2) | EC50 [1, 6]: 1 µM; % PTH reduction of baseline at 1 hour post IV admin. of 0.5 mg/kg compound (plasma PTH; Table 1): 0%; 0.5 mg/kg IV bolus % PTH AUC of saline control (plasma PTH; [7]): 7%
13 | 31 µM | 1.4 fold | CC(=O)N[C@H](CS)C(=O)N[C@H](C)C(=O)N[C@H](CCCNC(=N)N)C(=O)N[C@H](CCCCN)C(=O)N[C@H](CCCNC(=N)N)C(=O)N[C@H](C)C(=O)N[C@H](CCCNC(=N)N)C(N)=O [SEQ ID NO: 73, Ac-carkrar-NH2] (Ac-[dC][dA][dR][dK][dR][dA][dR]-NH2) | –
14 | 2 µM | – | CC(=O)N[C@H](CCS)C(=O)N[C@H](CCCNC(=N)N)C(=O)N[C@H](CCCNC(=N)N)C(=O)N[C@H](CCCNC(=N)N)C(=O)N[C@H](CCCNC(=N)N)C(=O)N[C@H](CCCNC(=N)N)C(=O)N[C@H](CCCNC(=N)N)C(N)=O [SEQ ID NO: 32, Ac-dHcy-rrrrrr-NH2] | 0.5 mg/kg IV bolus % PTH AUC of saline control (plasma PTH; [5]): 21%
15 | 4.5 µM | – | CC(=O)N[C@H](CS)C(=O)N[C@H](C)C(=O)N[C@H](C)C(=O)N[C@H](CCCNC(=N)N)C(=O)N[C@H](CCCNC(=N)N)C(=O)N[C@H](CCCNC(=N)N)C(=O)N[C@H](CCCNC(=N)N)C(=O)N[C@H](CCCNC(=N)N)C(=O)N[C@H](CCCNC(=N)N)C(N)=O [SEQ ID NO: 76, Ac-caarrrrrr-NH2] (Ac-[dC][dA][dA][dR][dR][dR][dR][dR][dR]-NH2) | –
